Results: ChEMBL document CHEMBL3046673, “Synthesis and herbicidal activities of novel 4-(4-(5-methyl-3-arylisoxazol-4-yl)thiazol-2-yl)piperidyl carboxamides and thiocarboxamides” (Molecules, 2009)

Key:
Format in all cases: functional
Settings in all cases: 120 h, read-out: GI
Echinochloa crus-galli [1] = assay: Herbicidal activity against Echinochloa crus-galli (barnyard grass) assessed as inhibition of stalk growth at 10 mg/L using pre-emergence exposure protocol after 5 days
Echinochloa crus-galli [2] = assay: Herbicidal activity against Echinochloa crus-galli (barnyard grass) assessed as inhibition of stalk growth at 100 mg/L using pre-emergence exposure protocol after 5 days
Brassica napus [3] = assay: Herbicidal activity against Brassica napus (oilseed rape) assessed as inhibition of stalk growth at 10 mg/L using pre-emergence exposure protocol after 5 days
Echinochloa crus-galli [4] = assay: Herbicidal activity against Echinochloa crus-galli (barnyard grass) assessed as inhibition of root growth at 10 mg/L using pre-emergence exposure protocol after 5 days
Echinochloa crus-galli [5] = assay: Herbicidal activity against Echinochloa crus-galli (barnyard grass) assessed as inhibition of root growth at 100 mg/L using pre-emergence exposure protocol after 5 days
Brassica napus [6] = assay: Herbicidal activity against Brassica napus (oilseed rape) assessed as inhibition of stalk growth at 100 mg/L using pre-emergence exposure protocol after 5 days
Brassica napus [7] = assay: Herbicidal activity against Brassica napus (oilseed rape) assessed as inhibition of root growth at 10 mg/L using pre-emergence exposure protocol after 5 days
Brassica napus [8] = assay: Herbicidal activity against Brassica napus (oilseed rape) assessed as inhibition of root growth at 100 mg/L using pre-emergence exposure protocol after 5 days

Row | SMILES | inhibition of growth at 10 µg/mL (Echinochloa crus-galli [1]) [%] | inhibition of growth at 100 µg/mL (Echinochloa crus-galli [2]) [%] | inhibition of growth at 10 µg/mL (Brassica napus [3]) [%] | inhibition of growth at 10 µg/mL (Echinochloa crus-galli [4]) [%] | inhibition of growth at 100 µg/mL (Echinochloa crus-galli [5]) [%] | inhibition of growth at 100 µg/mL (Brassica napus [6]) [%] | inhibition of growth at 10 µg/mL (Brassica napus [7]) [%] | inhibition of growth at 100 µg/mL (Brassica napus [8]) [%]
1 | COc1ccc(-c2noc(C)c2-c2csc(C3CCN(C(=O)Nc4ccc(F)cc4)CC3)n2)cc1 | 34.8 | 37 | 14.3 | 59.1 | 86.4 | 53.6 | 46.9 | 81.3
2 | Cc1onc(-c2ccccc2)c1-c1csc(C2CCN(C(=O)Nc3ccc(F)cc3)CC2)n1 | 0 | 17.7 | 0 | 54.8 | 87.1 | 31.8 | 66.3 | 85.4
3 | Cc1onc(-c2ccc(F)cc2)c1-c1csc(C2CCN(C(=O)Nc3ccc(F)cc3)CC2)n1 | 50 | 52.3 | 6.7 | 35.5 | 74.2 | 56.7 | 35.8 | 76.1
4 | Cc1onc(-c2ccccc2F)c1-c1csc(C2CCN(C(=O)Nc3ccc(F)cc3)CC2)n1 | 56.8 | 63.6 | 16.7 | 64.5 | 80.6 | 66.7 | 52.3 | 96.6
5 | Cc1onc(-c2ccc(Cl)cc2Cl)c1-c1csc(C2CCN(C(=O)Nc3ccc(F)cc3)CC2)n1 | 45.5 | 63.6 | 20.2 | 32.3 | 83.8 | 70 | 34.9 | 90.3
6 | Cc1onc(-c2ccc(F)cc2)c1-c1csc(C2CCN(C(=O)NC(C)C)CC2)n1 | 47.7 | 63.6 | 46.7 | 54.8 | 83.9 | 66.7 | 68.8 | 87.2
7 | CCCCNC(=O)N1CCC(c2nc(-c3c(-c4ccc(F)cc4)noc3C)cs2)CC1 | 56.8 | 63.6 | 40 | 71 | 87.1 | 70 | 67.8 | 88.1
8 | Cc1onc(-c2ccc(F)cc2)c1-c1csc(C2CCN(C(=O)Nc3ccccc3)CC2)n1 | 39.1 | 56.5 | 25 | 65.9 | 95.5 | 53.6 | 46.9 | 83.3
9 | Cc1onc(-c2ccc(F)cc2)c1-c1csc(C2CCN(C(=S)Nc3ccccc3)CC2)n1 | 43.2 | 63.6 | 6.7 | 48.4 | 87.1 | 53.3 | 54.1 | 90.1
10 | Cc1onc(-c2ccccc2F)c1-c1csc(C2CCN(C(=O)NC(C)C)CC2)n1 | 22 | 14.6 | 22.7 | 56.5 | 73.9 | 54.5 | 68.5 | 83.1
11 | CCCCNC(=O)N1CCC(c2nc(-c3c(-c4ccccc4F)noc3C)cs2)CC1 | 61.4 | 63.6 | 43.3 | 58.1 | 90.3 | 70 | 61.5 | 86.2
12 | Cc1onc(-c2ccccc2F)c1-c1csc(C2CCN(C(=O)Nc3ccccc3)CC2)n1 | 17.1 | 39 | 31.8 | 56.5 | 84.8 | 72.7 | 56.2 | 91.2
13 | Cc1onc(-c2ccccc2F)c1-c1csc(C2CCN(C(=S)Nc3ccccc3)CC2)n1 | 45.5 | 59.1 | 43.3 | 48.4 | 83.9 | 60 | 64.2 | 92.7
14 | Cc1onc(-c2ccccc2)c1-c1csc(C2CCN(C(=O)Nc3ccccc3)CC2)n1 | 52.3 | 63.6 | 30 | 52 | 78.3 | 70 | 51.4 | 80.4
15 | COc1ccc(-c2noc(C)c2-c2csc(C3CCN(C(=O)Nc4ccccc4)CC3)n2)cc1 | -22 | 24.6 | -22.7 | 45.7 | 76.1 | 4.5 | 20.2 | 43.8
